# Reference: article PMC10620772, “Design, synthesis, and biological evaluation of new pyrimidine-5-carbonitrile derivatives as novel anti-cancer, dual EGFR^WT/COX-2 inhibitors with docking studies” (RSC Advances, 2023)
# How the values were obtained:
# Type in all cases: cell-based, human
# NCI60 cell lines panel = assay: NCI60 antitumor screening, full panel; settings: 10 μM one-dose, mean over NCI60
# In short: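 Single-concentration screen at 10 μM across the NCI60 panel (leukaemia, NSCLC, colon, CNS, melanoma, ovarian, renal, prostate, breast). Results are expressed as percent growth inhibition (GI%) of treated lines.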
# OVCAR-8 = assay: NCI60 antitumor screening; settings: 10 μM one-dose
# UACC-62 = assay: NCI60 antitumor screening; settings: 10 μM one-dose
# MDA-MB-468 = assay: NCI60 antitumor screening; settings: 10 μM one-dose
# NCI-H226 = assay: NCI60 antitumor screening; settings: 10 μM one-dose
# MCF7 = assay: NCI60 antitumor screening; settings: 10 μM one-dose
# HCC-2998 = assay: NCI60 antitumor screening; settings: 10 μM one-dose
# SN12C = assay: NCI60 antitumor screening; settings: 10 μM one-dose
# BT-549 = assay: NCI60 antitumor screening; settings: 10 μM one-dose
# A549/ATCC = assay: NCI60 antitumor screening; settings: 10 μM one-dose
# DU-145 = assay: NCI60 antitumor screening; settings: 10 μM one-dose
# OVCAR-3 = assay: NCI60 antitumor screening; settings: 10 μM one-dose
# CCRF-CEM = assay: NCI60 antitumor screening; settings: 10 μM one-dose
# UACC-257 = assay: NCI60 antitumor screening; settings: 10 μM one-dose
# SK-OV-3 = assay: NCI60 antitumor screening; settings: 10 μM one-dose
# A498 = assay: NCI60 antitumor screening; settings: 10 μM one-dose
# OVCAR-5 = assay: NCI60 antitumor screening; settings: 10 μM one-dose
# LOX IMVI = assay: NCI60 antitumor screening; settings: 10 μM one-dose
# HOP-92 = assay: NCI60 antitumor screening; settings: 10 μM one-dose
# SF-539 = assay: NCI60 antitumor screening; settings: 10 μM one-dose
# UO-31 = assay: NCI60 antitumor screening; settings: 10 μM one-dose
# NCI-H460 = assay: NCI60 antitumor screening; settings: 10 μM one-dose
# T-47D = assay: NCI60 antitumor screening; settings: 10 μM one-dose
# MDA-MB-435 = assay: NCI60 antitumor screening; settings: 10 μM one-dose
# U251 = assay: NCI60 antitumor screening; settings: 10 μM one-dose
# HT29 = assay: NCI60 antitumor screening; settings: 10 μM one-dose
# 786–0 = assay: NCI60 antitumor screening; settings: 10 μM one-dose
# SF-295 = assay: NCI60 antitumor screening; settings: 10 μM one-dose
# SK-MEL-2 = assay: NCI60 antitumor screening; settings: 10 μM one-dose
# SK-MEL-28 = assay: NCI60 antitumor screening; settings: 10 μM one-dose
# PC-3 = assay: NCI60 antitumor screening; settings: 10 μM one-dose
# IGROV1 = assay: NCI60 antitumor screening; settings: 10 μM one-dose
# HS 578T = assay: NCI60 antitumor screening; settings: 10 μM one-dose
# SW-620 = assay: NCI60 antitumor screening; settings: 10 μM one-dose
# MOLT-4 = assay: NCI60 antitumor screening; settings: 10 μM one-dose
# SNB-75 = assay: NCI60 antitumor screening; settings: 10 μM one-dose
# NCI-H322M = assay: NCI60 antitumor screening; settings: 10 μM one-dose
# OVCAR-4 = assay: NCI60 antitumor screening; settings: 10 μM one-dose
# KM12 = assay: NCI60 antitumor screening; settings: 10 μM one-dose
# M14 = assay: NCI60 antitumor screening; settings: 10 μM one-dose
# HOP-62 = assay: NCI60 antitumor screening; settings: 10 μM one-dose
# CAKI-1 = assay: NCI60 antitumor screening; settings: 10 μM one-dose
# TK-10 = assay: NCI60 antitumor screening; settings: 10 μM one-dose
# HCT-116 = assay: NCI60 antitumor screening; settings: 10 μM one-dose
# RXF 393 = assay: NCI60 antitumor screening; settings: 10 μM one-dose
# SF-268 = assay: NCI60 antitumor screening; settings: 10 μM one-dose
# MDA-MB-231/ATCC = assay: NCI60 antitumor screening; settings: 10 μM one-dose
# ACHN = assay: NCI60 antitumor screening; settings: 10 μM one-dose
# SK-MEL-5 = assay: NCI60 antitumor screening; settings: 10 μM one-dose
# HCT-15 = assay: NCI60 antitumor screening; settings: 10 μM one-dose
# NCI-H522 = assay: NCI60 antitumor screening; settings: 10 μM one-dose
# NCI-H23 = assay: NCI60 antitumor screening; settings: 10 μM one-dose
# EKVX = assay: NCI60 antitumor screening; settings: 10 μM one-dose
# HL-60(TB) = assay: NCI60 antitumor screening; settings: 10 μM one-dose
# RPMI-8226 = assay: NCI60 antitumor screening; settings: 10 μM one-dose
# MALME-3M = assay: NCI60 antitumor screening; settings: 10 μM one-dose
# SR = assay: NCI60 antitumor screening; settings: 10 μM one-dose
# NCI/ADR-RES = assay: NCI60 antitumor screening; settings: 10 μM one-dose
# K-562 = assay: NCI60 antitumor screening; settings: 10 μM one-dose
# COLO 205 = assay: NCI60 antitumor screening; settings: 10 μM one-dose
# SNB-19 = assay: NCI60 antitumor screening; settings: 10 μM one-dose
smiles,measurement,setting,value
"Cc1ccc(CSc2nc(Cl)c(C#N)c(-c3ccc(F)cc3)n2)cc1 [3d, 4-Chloro-6-(4-fluorophenyl)-2-((4-methylbenzyl)thio)pyrimidine-5-carbonitrile]",Mean GI%,NCI60 cell lines panel,12.62%
same,GI%,OVCAR-8,— (GI% < 10)
same,GI%,UACC-62,17.58%
same,GI%,MDA-MB-468,— (GI% < 10)
same,GI%,NCI-H226,37.93%
same,GI%,MCF7,12.55%
same,GI%,HCC-2998,— (GI% < 10)
same,GI%,SN12C,27.59%
same,GI%,BT-549,18.08%
same,GI%,A549/ATCC,16.81%
same,GI%,DU-145,18.41%
same,GI%,OVCAR-3,— (GI% < 10)
same,GI%,CCRF-CEM,29.71%
same,GI%,UACC-257,— (GI% < 10)
same,GI%,SK-OV-3,— (GI% < 10)
same,GI%,A498,— (GI% < 10)
same,GI%,OVCAR-5,— (GI% < 10)
same,GI%,LOX IMVI,— (GI% < 10)
same,GI%,HOP-92,34.25%
same,GI%,SF-539,15.58%
same,GI%,UO-31,17.01%
same,GI%,NCI-H460,— (GI% < 10)
same,GI%,T-47D,46.84%
same,GI%,MDA-MB-435,— (GI% < 10)
same,GI%,U251,15.75%
same,GI%,HT29,51.51%
same,GI%,786–0,12.30%
same,GI%,SF-295,11.51%
same,GI%,SK-MEL-2,— (GI% < 10)
same,GI%,SK-MEL-28,— (GI% < 10)
same,GI%,PC-3,35.47%
same,GI%,IGROV1,— (GI% < 10)
same,GI%,HS 578T,— (GI% < 10)
same,GI%,SW-620,11.21%
same,GI%,MOLT-4,29.08%
same,GI%,SNB-75,— (GI% < 10)
same,GI%,NCI-H322M,— (GI% < 10)
same,GI%,OVCAR-4,14.97%
same,GI%,KM12,19.05%
same,GI%,M14,— (GI% < 10)
same,GI%,HOP-62,— (GI% < 10)
same,GI%,CAKI-1,16.99%
same,GI%,TK-10,— (GI% < 10)
same,GI%,HCT-116,25.73%
same,GI%,RXF 393,12.49%
same,GI%,SF-268,12.95%
same,GI%,MDA-MB-231/ATCC,— (GI% < 10)
same,GI%,ACHN,— (GI% < 10)
same,GI%,SK-MEL-5,15.98%
same,GI%,HCT-15,24.97%
same,GI%,NCI-H522,29.73%
same,GI%,NCI-H23,— (GI% < 10)
same,GI%,EKVX,20.92%
same,GI%,HL-60(TB),51.77%
same,GI%,RPMI-8226,25.03%
same,GI%,MALME-3M,— (GI% < 10)
same,GI%,SR,— (GI% < 10)
same,GI%,NCI/ADR-RES,14.93%
same,GI%,K-562,42.83%
same,GI%,COLO 205,— (GI% < 10)
same,GI%,SNB-19,— (GI% < 10)
"N#Cc1c(Cl)nc(SCc2ccccc2)nc1-c1ccc(F)cc1 [3a, 2-(Benzylthio)-4-chloro-6-(4-fluorophenyl) pyrimidine-5-carbonitrile]",Mean GI%,NCI60 cell lines panel,— (GI% < 10)
same,GI%,OVCAR-8,27.14%
same,GI%,UACC-62,— (GI% < 10)
same,GI%,MDA-MB-468,— (GI% < 10)
same,GI%,NCI-H226,18.61%
same,GI%,MCF7,— (GI% < 10)
same,GI%,HCC-2998,— (GI% < 10)
same,GI%,SN12C,— (GI% < 10)
same,GI%,BT-549,11.73%
same,GI%,A549/ATCC,16.44%
same,GI%,DU-145,— (GI% < 10)
same,GI%,OVCAR-3,— (GI% < 10)
same,GI%,CCRF-CEM,— (GI% < 10)
same,GI%,UACC-257,— (GI% < 10)
same,GI%,SK-OV-3,— (GI% < 10)
same,GI%,A498,— (GI% < 10)
same,GI%,OVCAR-5,— (GI% < 10)
same,GI%,LOX IMVI,— (GI% < 10)
same,GI%,HOP-92,14.74%
same,GI%,SF-539,24.06%
same,GI%,UO-31,14.25%
same,GI%,NCI-H460,— (GI% < 10)
same,GI%,T-47D,10.38%
same,GI%,MDA-MB-435,— (GI% < 10)
same,GI%,U251,39.15%
same,GI%,HT29,— (GI% < 10)
same,GI%,786–0,38.26%
same,GI%,SF-295,27.87%
same,GI%,SK-MEL-2,— (GI% < 10)
same,GI%,SK-MEL-28,— (GI% < 10)
same,GI%,PC-3,— (GI% < 10)
same,GI%,IGROV1,— (GI% < 10)
same,GI%,HS 578T,16.76%
same,GI%,SW-620,— (GI% < 10)
same,GI%,MOLT-4,— (GI% < 10)
same,GI%,SNB-75,— (GI% < 10)
same,GI%,NCI-H322M,— (GI% < 10)
same,GI%,OVCAR-4,49.74%
same,GI%,KM12,— (GI% < 10)
same,GI%,M14,— (GI% < 10)
same,GI%,HOP-62,12.77%
same,GI%,CAKI-1,21.66%
same,GI%,TK-10,— (GI% < 10)
same,GI%,HCT-116,22.79%
same,GI%,RXF 393,19.19%
same,GI%,SF-268,21.56%
same,GI%,MDA-MB-231/ATCC,21.72%
same,GI%,ACHN,45.51%
same,GI%,SK-MEL-5,— (GI% < 10)
same,GI%,HCT-15,— (GI% < 10)
same,GI%,NCI-H522,16.01%
same,GI%,NCI-H23,— (GI% < 10)
same,GI%,EKVX,— (GI% < 10)
same,GI%,HL-60(TB),44.03%
same,GI%,RPMI-8226,— (GI% < 10)
same,GI%,MALME-3M,— (GI% < 10)
same,GI%,SR,— (GI% < 10)
same,GI%,NCI/ADR-RES,20.64%
same,GI%,K-562,11.78%
same,GI%,COLO 205,— (GI% < 10)
same,GI%,SNB-19,16.70%
